Assay results as given in patent US20250230193A1, “CYCLIC COMPOUND HAVING SELECTIVE KRAS INHIBITORY EFFECT ON HRAS AND NRAS” (CHUGAI SEIYAKU KABUSHIKI KAISHA, priority 2022, published 2025).
*1 amine or outer side, *2 acyl side, *3 side chain or, on linkers, in order; H or OH if unused. Where a SMILES comes first, the peptide text is derived from it. Bridges are numbered along the chain shown (N, C = ends). [ ]: non-standard residue; d: D form. The star is where a group is joined. hPhe(3-Cl-4-CF3) = N[C@@H](CCc1ccc(C(F)(F)F)c(Cl)c1)C(=O)O; NPrPhe(4-CF3) = CCCN[C@@H](Cc1ccc(C(F)(F)F)cc1)C(=O)O; NEtAsp = CCN([C@@H](CC(=O)[*:3])C(=O)[*:2])[*:1]; NMeGly(cPent) = CN[C@H](C(=O)O)C1CCCC1; Ac4c(3,3-Me2) = CC1(C)CC(N)(C(=O)O)C1; NEtLeu = CCN[C@@H](CC(C)C)C(=O)O; NMeD = CN[C@@H](CC(=O)O)C(=O)O; NMeL = CN[C@@H](CC(C)C)C(=O)O; Morpholide = C1CN(*)CCO1; Ac5c = NC1(C(=O)O)CCCC1; NEtG = CCNCC(=O)O; Sar = CNCC(=O)O; Propyl = CCC*

Tests used:
[1] = biological target: GDP-bound NRAS wild-type protein (Homo sapiens, UniProt P01111); test: Binding to NRAS by surface plasmon resonance (SPR), Single Cycle Kinetics; settings: KD ratio, GDP-bound NRAS wild-type vs GDP-bound KRAS wild-type, SPR
Chain of GDP-bound NRAS wild-type protein (P01111 whole entry): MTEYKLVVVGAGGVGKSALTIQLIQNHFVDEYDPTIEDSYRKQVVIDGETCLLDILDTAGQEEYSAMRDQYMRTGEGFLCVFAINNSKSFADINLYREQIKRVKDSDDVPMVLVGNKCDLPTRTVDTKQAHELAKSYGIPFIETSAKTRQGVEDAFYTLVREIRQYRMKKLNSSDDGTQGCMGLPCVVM

[2] = biological target: GDP-bound HRAS wild-type protein (Homo sapiens, UniProt P01112); test: Binding to HRAS by surface plasmon resonance (SPR), Single Cycle Kinetics; settings: KD ratio, GDP-bound HRAS wild-type vs GDP-bound KRAS wild-type, SPR
Chain of GDP-bound HRAS wild-type protein (P01112 whole entry): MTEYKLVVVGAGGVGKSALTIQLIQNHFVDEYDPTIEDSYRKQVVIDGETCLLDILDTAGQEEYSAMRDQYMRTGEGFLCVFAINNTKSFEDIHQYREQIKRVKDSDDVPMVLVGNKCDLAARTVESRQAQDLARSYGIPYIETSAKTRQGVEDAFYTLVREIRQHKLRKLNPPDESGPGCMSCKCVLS

SMILES	NRAS/KRAS (ratio of KD value for NRAS to KD value for KRAS) [1]	HRAS/KRAS (ratio of KD value for HRAS to KD value for KRAS) [2]
CCCN1C(=O)CN(C)C(=O)CN(C)C(=O)[C@H]([C@@H](C)OC)NC(=O)[C@H](CC(C)C)N(C)C(=O)C[C@@H](C(=O)N2CCOCC2)N(C)C(=O)[C@H](C2CCCC2)N(C)C(=O)C2(CC(C)(C)C2)NC(=O)[C@@H]2CCCN2C(=O)[C@H](CCc2ccc(C(F)(F)F)c(Cl)c2)NC(=O)CN(C)C(=O)[C@@H]1Cc1ccc(C(F)(F)F)cc1 [PP1963] ([NMeL]T(Me)[Sar][Sar][NPrPhe(4-CF3)][Sar][hPhe(3-Cl-4-CF3)]P[Ac4c(3,3-Me2)][NMeGly(cPent)][NMeD]-Morpholide; lactam N-11)	B (a compound having 3 or more and less than 10 is denoted as B)	C (A compound having a KD ratio of 0.1 or more and less than 3 is denoted as C)
CCCN1C(=O)CN(C)C(=O)CN(C)C(=O)[C@H]([C@@H](C)OCC)NC(=O)[C@H](CC(C)C)N(C)C(=O)C[C@@H](C(=O)N2CCOCC2)N(C)C(=O)[C@H](C2CCCC2)N(C)C(=O)C2(CC(C)(C)C2)NC(=O)[C@@H]2CCCN2C(=O)[C@H](CCc2ccc(C(F)(F)F)c(Cl)c2)NC(=O)CN(C)C(=O)[C@@H]1Cc1ccc(C(F)(F)F)cc1 [PP1964] ([NMeL]T(Et)[Sar][Sar][NPrPhe(4-CF3)][Sar][hPhe(3-Cl-4-CF3)]P[Ac4c(3,3-Me2)][NMeGly(cPent)][NMeD]-Morpholide; lactam N-11)	B (a compound having 3 or more and less than 10 is denoted as B)	B (a compound having 3 or more and less than 10 is denoted as B)
CCCO[C@H](C)[C@@H]1NC(=O)[C@H](CC(C)C)N(C)C(=O)C[C@@H](C(=O)N2CCOCC2)N(C)C(=O)[C@H](C2CCCC2)N(C)C(=O)C2(CC(C)(C)C2)NC(=O)[C@@H]2CCCN2C(=O)[C@H](CCc2ccc(C(F)(F)F)c(Cl)c2)NC(=O)CN(C)C(=O)[C@H](Cc2ccc(C(F)(F)F)cc2)N(CCC)C(=O)CN(C)C(=O)CN(C)C1=O [PP1965] ([NMeL]T(Propyl)[Sar][Sar][NPrPhe(4-CF3)][Sar][hPhe(3-Cl-4-CF3)]P[Ac4c(3,3-Me2)][NMeGly(cPent)][NMeD]-Morpholide; lactam N-11)	B (a compound having 3 or more and less than 10 is denoted as B)	B (a compound having 3 or more and less than 10 is denoted as B)
CCCN1C(=O)CN(C)C(=O)CNC(=O)[C@H]([C@@H](C)CC)NC(=O)[C@H](CC(C)C)N(CC)C(=O)C[C@@H](C(=O)N2CCOCC2)N(C)C(=O)[C@H](C2CCCC2)N(C)C(=O)C2(CCCC2)NC(=O)[C@@H]2CCCN2C(=O)[C@H](CCc2ccc(C(F)(F)F)c(Cl)c2)NC(=O)CN(C)C(=O)[C@@H]1Cc1ccc(C(F)(F)F)cc1 [PP1967] ([NEtLeu]IG[Sar][NPrPhe(4-CF3)][Sar][hPhe(3-Cl-4-CF3)]P[Ac5c][NMeGly(cPent)][NMeD]-Morpholide; lactam N-11)	B (a compound having 3 or more and less than 10 is denoted as B)	B (a compound having 3 or more and less than 10 is denoted as B)
CCCN1C(=O)CN(CC)C(=O)CNC(=O)[C@H]([C@@H](C)CC)NC(=O)[C@H](CC(C)C)N(C)C(=O)C[C@@H](C(=O)N2CCOCC2)N(C)C(=O)[C@H](C2CCCC2)N(C)C(=O)C2(CCCC2)NC(=O)[C@@H]2CCCN2C(=O)[C@H](CCc2ccc(C(F)(F)F)c(Cl)c2)NC(=O)CN(C)C(=O)[C@@H]1Cc1ccc(C(F)(F)F)cc1 [PP1968] ([NMeL]IG[NEtG][NPrPhe(4-CF3)][Sar][hPhe(3-Cl-4-CF3)]P[Ac5c][NMeGly(cPent)][NMeD]-Morpholide; lactam N-11)	C (A compound having a KD ratio of 0.1 or more and less than 3 is denoted as C)	C (A compound having a KD ratio of 0.1 or more and less than 3 is denoted as C)
CCCN1C(=O)CN(C)C(=O)CNC(=O)[C@H]([C@@H](C)CC)NC(=O)[C@H](CC(C)C)N(C)C(=O)C[C@@H](C(=O)N2CCOCC2)N(C)C(=O)[C@H](C2CCCC2)N(C)C(=O)C2(CCCC2)NC(=O)[C@@H]2CCCN2C(=O)[C@H](CCc2ccc(C(F)(F)F)c(Cl)c2)NC(=O)CN(CC)C(=O)[C@@H]1Cc1ccc(C(F)(F)F)cc1 [PP1969] ([NMeL]IG[Sar][NPrPhe(4-CF3)][NEtG][hPhe(3-Cl-4-CF3)]P[Ac5c][NMeGly(cPent)][NMeD]-Morpholide; lactam N-11)	B (a compound having 3 or more and less than 10 is denoted as B)	C (A compound having a KD ratio of 0.1 or more and less than 3 is denoted as C)
CCCN1C(=O)CN(C)C(=O)CNC(=O)[C@H]([C@@H](C)CC)NC(=O)[C@H](CC(C)C)N(C)C(=O)C[C@@H](C(=O)N2CCOCC2)N(CC)C(=O)[C@H](C2CCCC2)N(C)C(=O)C2(CCCC2)NC(=O)[C@@H]2CCCN2C(=O)[C@H](CCc2ccc(C(F)(F)F)c(Cl)c2)NC(=O)CN(C)C(=O)[C@@H]1Cc1ccc(C(F)(F)F)cc1 [PP1970] ([NMeL]IG[Sar][NPrPhe(4-CF3)][Sar][hPhe(3-Cl-4-CF3)]P[Ac5c][NMeGly(cPent)][NEtAsp]-Morpholide; lactam N-11)	B (a compound having 3 or more and less than 10 is denoted as B)	B (a compound having 3 or more and less than 10 is denoted as B)
CCCN1C(=O)CN(C)C(=O)[C@H](C)NC(=O)[C@H]([C@@H](C)CC)NC(=O)[C@H](CC(C)C)N(C)C(=O)C[C@@H](C(=O)N2CCOCC2)N(C)C(=O)[C@H](C2CCCC2)N(C)C(=O)C2(CCCC2)NC(=O)[C@@H]2CCCN2C(=O)[C@H](CCc2ccc(C(F)(F)F)c(Cl)c2)NC(=O)CN(C)C(=O)[C@@H]1Cc1ccc(C(F)(F)F)cc1 [PP1971] ([NMeL]IA[Sar][NPrPhe(4-CF3)][Sar][hPhe(3-Cl-4-CF3)]P[Ac5c][NMeGly(cPent)][NMeD]-Morpholide; lactam N-11)	B (a compound having 3 or more and less than 10 is denoted as B)	B (a compound having 3 or more and less than 10 is denoted as B)
CC[C@H](C)[C@@H]1NC(=O)[C@H](CCOC)N(C)C(=O)C[C@@H](C(=O)N(C)CC)N(C)C(=O)[C@H](C2CCCC2)N(C)C(=O)C2(CC(C)(C)C2)NC(=O)[C@@H]2C[C@H](C)CN2C(=O)[C@H](CCc2cc(F)c(C(F)(F)F)c(F)c2)NC(=O)CN(C)C(=O)[C@H](Cc2ccc(C(F)(F)F)cc2)N2CC/C=C\C[C@@H](C2=O)N(C)C(=O)CN(C)C1=O [PP1972]	A (a compound having 10 or more and less than 20 is denoted as A)	A (a compound having 10 or more and less than 20 is denoted as A)
CCCOC[C@H]1C(=O)N[C@@H]([C@@H](C)CC)C(=O)N(C)CC(=O)N(C)[C@H]2C/C=C\CCN(C2=O)[C@@H](Cc2ccc(C(F)(F)F)cc2)C(=O)N(C)CC(=O)N[C@@H](CCc2ccc(C(F)(F)F)c(OC)c2)C(=O)N2C[C@H](OCC)C[C@H]2C(=O)NC2(CC(C)(C)C2)C(=O)N(C)[C@@H](C2CCCC2)C(=O)N(C)[C@H](C(=O)N(C)CC)CC(=O)N1C [PP1973]	A (a compound having 10 or more and less than 20 is denoted as A)	B (a compound having 3 or more and less than 10 is denoted as B)
CCCN(C)C(=O)[C@@H]1CC(=O)N(C)[C@@H](CCOC)C(=O)N[C@@H]([C@@H](C)CC)C(=O)N(C)CC(=O)N(C)[C@H]2C/C=C\CCN(C2=O)[C@@H](Cc2ccc(C(F)(F)F)cc2)C(=O)N(C)CC(=O)N[C@@H](CCc2cc(F)c(C(F)(F)F)c(F)c2)C(=O)N2C[C@@H](C)C[C@H]2C(=O)NC2(CC(C)(C)C2)C(=O)N(C)[C@@H](C2CCCC2)C(=O)N1C [PP1974]	A (a compound having 10 or more and less than 20 is denoted as A)	A (a compound having 10 or more and less than 20 is denoted as A)
CCCN(C)C(=O)[C@@H]1CC(=O)N(C)[C@@H](CCOC)C(=O)N[C@@H]([C@@H](C)CC)C(=O)N(C)CC(=O)N(C)[C@H]2C/C=C\CCN(C2=O)[C@@H](Cc2ccc(C(F)(F)F)cc2)C(=O)N(C)CC(=O)N[C@@H](CCc2ccc(C(F)(F)F)c(OC)c2)C(=O)N2C[C@H](OCC)C[C@H]2C(=O)NC2(CC(C)(C)C2)C(=O)N(C)[C@@H](C2CCCC2)C(=O)N1C [PP1975]	A (a compound having 10 or more and less than 20 is denoted as A)	A (a compound having 10 or more and less than 20 is denoted as A)
CC[C@H](C)[C@@H]1NC(=O)[C@H](C(C)C)N(C)C(=O)C[C@@H](C(=O)N(C)CC)N(C)C(=O)[C@H](C2CCCC2)N(C)C(=O)C2(CC(C)(C)C2)NC(=O)[C@@H]2C[C@H](C)CN2C(=O)[C@H](CCc2cc(F)c(C(F)(F)F)c(F)c2)NC(=O)CN(C)C(=O)[C@H](Cc2ccc(C(F)(F)F)cc2)N2CC/C=C\C[C@@H](C2=O)N(C)C(=O)CN(C)C1=O [PP1976]	AA (a compound having 20 or more is denoted as AA)	A (a compound having 10 or more and less than 20 is denoted as A)
CCO[C@@H]1C[C@H]2C(=O)NC3(CC(C)(C)C3)C(=O)N(C)[C@@H](C3CCCC3)C(=O)N(C)[C@H](C(=O)N(C)CC)CC(=O)N(C)[C@@H](C(C)C)C(=O)N[C@@H]([C@@H](C)CC)C(=O)N(C)CC(=O)N(C)[C@H]3C/C=C\CCN(C3=O)[C@@H](Cc3ccc(C(F)(F)F)cc3)C(=O)N(C)CC(=O)N[C@@H](CCc3ccc(C(F)(F)F)c(OC)c3)C(=O)N2C1 [PP1977]	AA (a compound having 20 or more is denoted as AA)	A (a compound having 10 or more and less than 20 is denoted as A)
